Columns and labels:
[1] = system: SKH-1 Elite mice; experiment: Oxazolone model of chronic skin inflammation: blood lymphocyte and white blood cell counts; format: in vivo, mouse; conditions: day 29; PO; Compound 1 30 mg/kg b.i.d., Dexamethasone 1.5 mg/kg q.d.
Method: FIGS. 9A and 9B report the effects on blood lymphocyte (FIG. 9A) and white blood cell (WBC) (FIG. 9B) levels in mice treated as in FIG. 8. Lymphocyte level reduction was severe with dexamethasone treated mice and less so with Compound 1 treatment.
The Oxazolone model of chronic skin inflammation, was tested using Compound 1 and a known anti-inflammatory, dexamethasone. SKH-1 Elite mice were sensitized with 10 µL of a high dose of topical Oxazolone (5% wt/vol in 100% EtOH) on their back and a subsequent chronic inflammation was triggered using low doses of topical Oxazolone (0.1% wt/vol in 100% EtOH) every other day on both flanks. […]
Three hundred (300) µL of whole blood in 10 mM EDTA freshly collected at day 29 of the study and erythrocytes was analyzed for counting of lymphocytes (FIG. 9A) and white blood cells (WBC) (FIG. 9B) using an Advia - 120 hematology analyzer. Lymphocyte and white blood cell (WBC) populations were quantified for each treatment group (n=3, 6, 8, 8, 8, 6, respectively). All data are mean ± s.e.m. and statistical significance was assessed using one-way ANOVA followed by Tukey’s multiple comparisons test with the following adjusted p-value thresholds: <0.05 (*), < 0.01 (**), < 0.001 (***) and <0.0001 (****).

[2] = Half-life of Compound 1; conditions: read-out: t½ (converted)

For `C[C@@H]1C[C@H]2[C@@H]3CCC4=CC(=O)C=C[C@]4(C)[C@@]3(F)[C@@H](O)C[C@]2(C)[C@@]1(O)C(=O)CO` [Dexamethasone], the “blood lymphocyte level reduction” value [1] was “severe”.

In the case of `Cc1cc(C(=O)N(C)C)cc(NC(=O)[C@H]2CCC(=O)N2C2CCN(Cc3ccc(Cl)c(C)c3)CC2)n1` [Compound 1], the half-life [2] is reported as 18 h.
